Test results published in paper PMC8187357 (Communications Biology, 2021).
Values joined by “and” are separate entries in the source; they are usually repeats but may differ in a detail not shown here. Identical values can stand only once.

Legend:
[1] = system: CT26 colon carcinoma model; assay: Immune pharmacodynamics in CT26 colon carcinoma model; type: in vivo, mouse; details: CT26 tumor infiltrating lymphocytes, CA-170 10 mg/kg daily, PD-1 antibody J43 100 µg/animal, 5 days, individual animals
Description: For the measurement of immune pharmacodynamics, CT26 cells were subcutaneously implanted into 5 to 7 weeks old male Balb/c mice by injecting 1 million CT26 tumor cells/ animal. When tumor volume reached ~200mm^3, animals were randomized and allocated to three treatment groups (n = 5). Similarly, for the measurement of immune pharmacodynamics in MC38 model, MC38 cell lines were subcutaneously implanted into 5 to 7 weeks old male C57B6 mice by injecting 0.5 million cells/animal. Dosing was initiated when tumor volume reached ~100 mm^3. In both tumor models, mice were orally treated daily with vehicle and CA-170 (10 mg/kg) for 5 days. As an additional control, anti-PD1 antibody (100 μg/animal, clone J43) was dosed intraperitoneally on day 1. After 24 h of last dosing, animals were sacrificed, and blood samples and tumor tissues were collected from each animal and processed for PD evaluation using antibodies shown in Supplementary Table 1 and specific methods reported in publication[51] and analyzed by FACS. The gating strategy is detailed in Supplementary Fig. 3.

PD-L1 [2] = biological target: T1, PD-L1 (Macaca fascicularis, UniProt G7PSE7); assay: Rescue of IFN-γ release inhibited by PD-L1, monkey PBMC; type: cell-based; details: n=1
Procedure: (§1) The ability of peptides, peptidomimetics, and small molecules were analyzed for their ability to rescue T-cell proliferation or IFN-γ release from the inhibitory activity of PD-L1 or PD-L2 in a splenocyte/PBMC-based functional assay as per the protocols reported in publication. […] For all in vitro assays, test agent stock was prepared in water and diluted further in the assay media to achieve test concentrations. Each experimental condition was carried out in triplicates. Percent rescue for a given test compound concentration was calculated by normalizing individual percent test agent proliferation or IFN-γ release values to percent anti-CD3 and anti-CD28 antibodies stimulated proliferation or IFN-γ release. EC50 values were derived by plotting transformed data into non-linear fit in sigmoidal dose–response curve using GraphPad Prism software (Version 7).

Bradykinin B2 = biological target: T2, Bradykinin B2 (Homo sapiens, UniProt P30411); assay: CEREP 80 panel binding: Bradykinin; details: read-out: % Inhibition of Control Specific Binding
T2 construct: Eurofins Cerep Panlabs (contract assay)
Procedure: (§2) CEREP 80 panel assay was carried out by Eurofins Cerep Panlabs facility at France. A series of binding assays was carried out to understand the off-target toxicity of CA-170. CA-170 was tested at 10 μM test concentration in duplicates. Compound binding was calculated as a % inhibition of the binding of a radioactively labeled ligand specific for each target. In each experiment the respective reference compound was tested concurrently with CA-170, and the data were compared with historical values determined at Eurofins. The experiment was accepted in accordance with Eurofins validation standard operating procedure. The results are expressed as a percent of control specific binding; (measured specific binding / control specific binding) × 100 and as a percent inhibition of control specific binding; 100−(measured specific binding / control specific binding) × 100 obtained in the presence of CA-170. The IC50 values (concentration causing a half-maximal inhibition of control specific binding) and Hill coefficients (nH) were determined by non-linear regression analysis of the competition curves generated with mean replicate values using Hill equation curve fitting.

PD-L1 [3] = biological target: T1, PD-L1; assay: Rescue of proliferation inhibited by PD-L1, monkey PBMC; type: cell-based; details: n=1
Procedure: as §1

GABA = assay: CEREP 80 panel binding: GABA; details: 10 µM
Procedure: as §2

[4] = system: Classical Hodgkin lymphoma; design: method as in doi:10.1093/annonc/mdz253.035; details: Phase 2, Lugano criteria; cited from earlier work
PD-L1 [5] = biological target: T3, PD-L1 (Mus musculus, UniProt Q9EP73); assay: Rescue of PD-L1 mediated inhibition of proliferation, mouse splenocytes; type: cell-based; details: splenocyte-based assay
T3 construct: purchased R&D Systems 1019-B7-100
Procedure: as §1

[6] = system: advanced (stage 4) non-squamous NSCLC; design: method as in doi:10.1093/annonc/mdz253.035; details: Phase 2, cited from earlier work
NeuropeptideY Y1,Y2 = assay: CEREP 80 panel binding: NeuropeptideY; details: 10 µM
Procedure: as §2

Melatonin MT1 = biological target: T4, Melatonin MT1 (Homo sapiens, UniProt P48039); assay: CEREP 80 panel binding: Melatonin; details: read-out: % Inhibition of Control Specific Binding
T4 construct: Eurofins Cerep Panlabs (contract assay)
Procedure: as §2

CT26 tumor model = assay: Tumor-infiltrating Tregs and CD8/FoxP3 ratio in CT26 model; type: in vivo, mouse
Description: Supplementary Figure 2: Effect of CA-170 alone and in combination with CTX on CD8/FoxP3 […]
administration of CA-170 in CT26 tumor model, as observed by the measuring CD4+CD25+FoxP3+ cells. However, an increase in the number of infiltrating CD8+ T cells increased in CA-170 + CTX treated group, led to a favourable increase in the ratio of CD8+T cells […]
(1 picture or pasted object on this page, not shown here)

Vasopressin V1a = biological target: T5, Vasopressin V1a (Homo sapiens, UniProt P37288); assay: CEREP 80 panel binding: Vasopressin; details: read-out: % Inhibition of Control Specific Binding
T5 construct: Eurofins Cerep Panlabs (contract assay)
Procedure: as §2

human PBMCs = assay: Cytokine induction in human PBMCs; type: cell-based; details: for IFNγ: 48 h, normal density, replicates
Procedure: To determine the potential for any unforeseen T-cell agonist activity in humans, a study was conducted where human PBMCs from healthy donors were pre-cultured either at normal density (2 × 10^5 cells/well) or at high density (1 × 10^7 cells/mL) in vitro to increase cell–cell contacts and immune scanning as described[24] and then treated with CA-170 (10 nM to 1000 nM) IL-2, TNF-α and IFN-γ cytokine release was measured in the culture supernatants at 24 and 48 h. Human PBMCs stimulated with anti-CD3 alone or anti-CD3 + anti-CD28 antibodies served as positive controls for cytokine release in this assay.

T1 sequence (G7PSE7 19-239): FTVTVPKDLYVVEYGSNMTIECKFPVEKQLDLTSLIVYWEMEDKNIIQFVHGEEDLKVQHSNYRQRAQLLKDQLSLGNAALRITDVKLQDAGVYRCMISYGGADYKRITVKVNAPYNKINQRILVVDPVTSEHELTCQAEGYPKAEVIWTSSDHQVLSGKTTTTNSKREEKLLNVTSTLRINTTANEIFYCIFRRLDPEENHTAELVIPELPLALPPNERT
T3 sequence (Q9EP73 with tags, fused parts or gaps limits assumed): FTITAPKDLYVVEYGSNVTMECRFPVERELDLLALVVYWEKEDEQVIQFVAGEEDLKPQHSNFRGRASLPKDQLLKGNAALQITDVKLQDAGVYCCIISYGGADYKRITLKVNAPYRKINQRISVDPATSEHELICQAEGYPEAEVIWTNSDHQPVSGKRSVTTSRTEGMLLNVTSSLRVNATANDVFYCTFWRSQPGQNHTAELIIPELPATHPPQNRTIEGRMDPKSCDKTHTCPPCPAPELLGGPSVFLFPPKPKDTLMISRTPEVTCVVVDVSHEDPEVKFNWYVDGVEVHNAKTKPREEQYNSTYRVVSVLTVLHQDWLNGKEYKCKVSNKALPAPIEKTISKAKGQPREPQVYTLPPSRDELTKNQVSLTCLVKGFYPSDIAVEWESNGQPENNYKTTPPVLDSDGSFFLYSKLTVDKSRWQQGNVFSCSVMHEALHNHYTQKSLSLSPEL
T4 sequence (P48039 whole entry): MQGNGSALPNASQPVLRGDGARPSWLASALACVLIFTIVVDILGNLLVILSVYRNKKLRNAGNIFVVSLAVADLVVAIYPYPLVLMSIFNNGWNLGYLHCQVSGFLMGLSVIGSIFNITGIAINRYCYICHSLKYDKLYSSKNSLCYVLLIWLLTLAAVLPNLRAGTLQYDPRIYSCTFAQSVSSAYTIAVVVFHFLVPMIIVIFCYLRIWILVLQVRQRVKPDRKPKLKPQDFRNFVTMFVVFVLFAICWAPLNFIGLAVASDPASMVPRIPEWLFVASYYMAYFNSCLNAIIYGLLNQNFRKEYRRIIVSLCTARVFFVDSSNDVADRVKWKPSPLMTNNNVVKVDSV
T2 sequence (P30411 whole entry): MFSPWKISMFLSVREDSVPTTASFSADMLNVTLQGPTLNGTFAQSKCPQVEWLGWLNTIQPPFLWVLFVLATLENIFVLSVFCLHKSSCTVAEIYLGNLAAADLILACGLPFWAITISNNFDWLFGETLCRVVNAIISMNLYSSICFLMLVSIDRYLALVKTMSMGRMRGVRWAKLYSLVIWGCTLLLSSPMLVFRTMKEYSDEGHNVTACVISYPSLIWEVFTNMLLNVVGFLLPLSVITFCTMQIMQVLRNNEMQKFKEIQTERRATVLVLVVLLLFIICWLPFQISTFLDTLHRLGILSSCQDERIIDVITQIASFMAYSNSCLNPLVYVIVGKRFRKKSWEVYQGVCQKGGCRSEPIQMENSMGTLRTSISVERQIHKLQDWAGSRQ
T5 sequence (P37288 whole entry): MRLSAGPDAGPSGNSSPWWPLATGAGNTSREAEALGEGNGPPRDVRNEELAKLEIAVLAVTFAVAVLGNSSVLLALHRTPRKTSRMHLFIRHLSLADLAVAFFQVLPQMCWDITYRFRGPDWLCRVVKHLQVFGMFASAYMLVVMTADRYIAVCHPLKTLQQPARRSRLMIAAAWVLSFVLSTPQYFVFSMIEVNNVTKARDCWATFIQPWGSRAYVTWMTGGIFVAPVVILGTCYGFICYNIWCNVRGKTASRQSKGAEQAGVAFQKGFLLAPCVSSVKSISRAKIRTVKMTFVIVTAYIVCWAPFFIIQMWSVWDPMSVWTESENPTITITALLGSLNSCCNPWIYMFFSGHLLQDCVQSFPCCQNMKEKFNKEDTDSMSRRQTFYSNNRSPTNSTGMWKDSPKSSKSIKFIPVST
Procedure for Plasma stability, human: (§3) Test compounds were tested for plasma stability (test concentration of 10 μM) as per the protocols reported in publication[20].
Procedure for Plasma stability, rat: as §3

**Q.** With `C[C@@H](O)[C@H](NC(=O)N[C@@H](CC(N)=O)c1nc([C@@H](N)CO)no1)C(=O)O` [CA-170] as the compound, how does the “Ki-67+ cells % Live, CD45+, CD3+, CD4+ T cells” value [1] read?
**A.** 57.1% and 63.22% and 64.66% and 82.55% and 45.02%

**Q.** What about the “Ki-67+ cells % Live, CD45+, CD3+, CD8+ T cells” value [1] of the same compound?
**A.** 71.24% and 82.88% and 69.7% and 88.94% and 68.84%

**Q.** What about the “OX-40+ cells % Live, CD45+, CD3+, CD4+ T cells” value [1] of the same compound?
**A.** 56.66% and 56.78% and 46.34% and 42.73% and 29.6%

**Q.** And the “OX-40+ cells % Live, CD45+, CD3+, CD8+ T cells” value [1]?
**A.** 87.3% and 96.29% and 95.65% and 95.1% and 35.3%

**Q.** And the EC50 (PD-L1 [2])?
**A.** 97.8 nM

**Q.** And the inhibition at 10 µM (Bradykinin B2)?
**A.** < 0%

**Q.** What about the EC50 (PD-L1 [3]) of the same compound?
**A.** 34 nM

**Q.** What about the “% Inhibition of Control Specific Binding” value (GABA) of the same compound?
**A.** 11%

**Q.** And the ORR [4]?
**A.** 30%

**Q.** What about the EC50 (PD-L1 [5]) of the same compound?
**A.** 15.4 ± 1.3 nM

**Q.** What about the PFS ([6]; advanced (stage 4) non-squamous NSCLC) of the same compound?
**A.** 19.6 weeks

**Q.** And the CBR ([6]; daily dose of 400 mg, advanced non-squamous NSCLC)?
**A.** > 85%

**Q.** And the “% Inhibition of Control Specific Binding” value (NeuropeptideY Y1,Y2)?
**A.** ≤ 78%

**Q.** And the inhibition at 10 µM (Melatonin MT1)?
**A.** 5%

**Q.** What about the remaining at 4 h, 10 μM (Plasma stability, rat) of the same compound?
**A.** > 95%

**Q.** What about the “levels of tumor-infiltrating Tregs (CD4+CD25+FoxP3+ cells; in words)” value (CT26 tumor model; CA-170) of the same compound?
**A.** No significant change

**Q.** And the “ratio of CD8+T cells to Tregs (in words)” value (CT26 tumor model; CA-170 + CTX)?
**A.** increased significantly

**Q.** What about the remaining at 4 h, 10 μM (Plasma stability, human) of the same compound?
**A.** > 95%

**Q.** What about the inhibition at 10 µM (Vasopressin V1a) of the same compound?
**A.** 1%

**Q.** And the IFN-γ (human PBMCs; 24 hours, Normal density, 10nM)?
**A.** BLoD

**Q.** What about the IFN-γ (human PBMCs; 24 hours, Normal density, 50nM) of the same compound?
**A.** BLoD

**Q.** And the IFN-γ (human PBMCs; 24 hours, Normal density, 100nM)?
**A.** BLoD

**Q.** What about the IFN-γ (human PBMCs; 24 hours, Normal density, 250nM) of the same compound?
**A.** BLoD

**Q.** And the IFN-γ (human PBMCs; 24 hours, Normal density, 500nM)?
**A.** BLoD

**Q.** And the IFN-γ (human PBMCs; 24 hours, Normal density, 1000nM)?
**A.** BLoD

**Q.** And the IFNγ (human PBMCs; 10 nM)?
**A.** BLOD

**Q.** What about the IFNγ (human PBMCs; 50 nM) of the same compound?
**A.** BLOD

**Q.** And the IFNγ (human PBMCs; 100 nM)?
**A.** BLOD

**Q.** And the IFNγ (human PBMCs; 250 nM)?
**A.** BLOD

**Q.** And the IFNγ (human PBMCs; 500 nM)?
**A.** BLOD

**Q.** What about the IFNγ (human PBMCs; 1000 nM) of the same compound?
**A.** BLOD

**Q.** And the IFN-γ (human PBMCs; human, 24 h, 10 nM)?
**A.** 2.8 ± 1.9 pg/mL

**Q.** And the IFN-γ (human PBMCs; human, 24 h, 50 nM)?
**A.** 1.5 ± 1.0 pg/mL

**Q.** What about the IFN-γ (human PBMCs; human, 24 h, 100 nM) of the same compound?
**A.** 1.5 ± 0 pg/mL

**Q.** And the IFN-γ (human PBMCs; human, 24 h, 250 nM)?
**A.** 4.0 ± 0.7 pg/mL

**Q.** And the IFN-γ (human PBMCs; human, 24 h, 500 nM)?
**A.** 6.8 ± 1.5 pg/mL

**Q.** And the IFN-γ (human PBMCs; human, 24 h, 1000 nM)?
**A.** 5.8 ± 1.4 pg/mL

**Q.** What about the “cytokine induction (in words)” value (human PBMCs; normal and high-density culture conditions) of the same compound?
**A.** did not induce significant levels of cytokines
